{
  "source": "patent US20100285959A1",
  "about": "“HERBICIDAL MIXTURES” (priority 2006, published 2010)",
  "experiment_in_all_cases": "Test 14 field trial, preemergence, growth as percent of control",
  "key": {"jimsonweed (DATST)": {"test_system": "jimsonweed (DATST)", "assay_type": "in vivo, Datura stramonium", "source_text": "(§1) Corn seeds (hybrid ‘Pioneer 31G96 RR’) were planted in mid spring season, 3.8 cm deep in a clay loam soil having 2% organic matter and a pH of 6.6. Plots were 6.1 m long by 3.0 m wide with rows spaced 76 cm apart. Seeds were spaced 15 cm apart within the rows. The field was managed using conventional tillage practices. […] Yellow nutsedge was only evaluated 19 and 28 days after application, and ivyleaf morningglory could only be evaluated 28 days after application. […] Results are the means of the three replicates. This growth inhibition data was converted to results in the form of “plant growth as a percent of control plant growth” using the calculation “100 minus growth inhibition”. […] For “growth as a percent of control” data, Colby's Equation calculates the expected additive effect of herbicidal mixtures having two active ingredients as follows:\n(§2) Ga+b=GaGb/100 • wherein Ga+b is the growth as a percent of control of plants treated with the mixture expected from additive contribution of the individual components, • Ga is the observed growth as a percent of control of plants treated with the first active ingredient at the same use rate as in the mixture, and • Gb is the observed growth as a percent of control of plants treated with the second active ingredient at the same use rate as in the mixture. For mixtures having three active ingredients, Colby's Equation to calculate the expected additive effect of herbicidal mixtures is as follows:\n(§3) Ga+b+c=GaGbGc/10,000 • wherein Ga and Gb are as defined above and • Ga+b+c is the growth as a percent of control of plants treated with the mixture expected from additive contribution of the individual components, and • Gc is the observed growth as a percent of control of plants treated with the third active ingredient at the same use rate as in the mixture. When these two forms of Colby's Equation are used, if the observed effects on weeds are less than the expected values, the mixture is synergistic."}, "giant foxtail (SETFA)": {"test_system": "giant foxtail (SETFA)", "assay_type": "in vivo, Setaria faberi", "source_text": "as §1, §2, §3"}, "[1]": {"test_system": "ladysthumb smartweed (POLPE)", "assay_type": "in vivo, Polygonum persicaria", "source_text": "as §1, §2, §3"}, "velvetleaf (ABUTH)": {"test_system": "velvetleaf (ABUTH)", "assay_type": "in vivo, Abutilon theophrasti", "source_text": "as §1, §2, §3"}, "giant ragweed (AMBTR)": {"test_system": "giant ragweed (AMBTR)", "assay_type": "in vivo, Ambrosia trifida", "source_text": "as §1, §2, §3"}, "common ragweed (AMBEL)": {"test_system": "common ragweed (AMBEL)", "assay_type": "in vivo, Ambrosia artemisiifolia", "source_text": "as §1, §2, §3"}, "yellow nutsedge (CYPES)": {"test_system": "yellow nutsedge (CYPES)", "assay_type": "in vivo, Cyperus esculentus", "source_text": "as §1, §2, §3"}, "[2]": {"test_system": "ivyleaf morningglory (IPOHE)", "assay_type": "in vivo, Ipomoea hederacea", "settings": "28 DAA", "source_text": "as §1, §2, §3"}},
  "data": [
    {"smiles": "CCS(=O)(=O)c1cccnc1S(=O)(=O)NC(=O)Nc1nc(OC)cc(OC)n1", "note": "[Rimsulfuron]", "values": [
      {"measurement": "Obs growth % of control", "setting": "jimsonweed (DATST); 19 DAA, 12 g a.i./ha", "value": 100, "unit": "%"},
      {"measurement": "Obs growth % of control", "setting": "jimsonweed (DATST); 19 DAA, 24 g a.i./ha", "value": 93, "unit": "%"},
      {"measurement": "Obs growth % of control", "setting": "jimsonweed (DATST); 19 DAA, 36 g a.i./ha", "value": 85, "unit": "%"},
      {"measurement": "Obs growth % of control", "setting": "jimsonweed (DATST); 28 DAA, 12 g a.i./ha", "value": 100, "unit": "%"},
      {"measurement": "Obs growth % of control", "setting": "jimsonweed (DATST); 28 DAA, 24 g a.i./ha", "value": 62, "unit": "%"},
      {"measurement": "Obs growth % of control", "setting": "jimsonweed (DATST); 28 DAA, 36 g a.i./ha", "value": 48, "unit": "%"},
      {"measurement": "Obs growth % of control", "setting": "jimsonweed (DATST); 56 DAA, 12 g a.i./ha", "value": 100, "unit": "%"},
      {"measurement": "Obs growth % of control", "setting": "jimsonweed (DATST); 56 DAA, 24 g a.i./ha", "value": 92, "unit": "%"},
      {"measurement": "Obs growth % of control", "setting": "jimsonweed (DATST); 56 DAA, 36 g a.i./ha", "value": 92, "unit": "%"},
      {"measurement": "Obs growth % of control", "setting": "giant foxtail (SETFA); 19 DAA, 12 g a.i./ha", "value": 32, "unit": "%"},
      {"measurement": "Obs growth % of control", "setting": "giant foxtail (SETFA); 19 DAA, 24 g a.i./ha", "value": 33, "unit": "%"},
      {"measurement": "Obs growth % of control", "setting": "giant foxtail (SETFA); 19 DAA, 36 g a.i./ha", "value": 7, "unit": "%"},
      {"measurement": "Obs growth % of control", "setting": "giant foxtail (SETFA); 28 DAA, 12 g a.i./ha", "value": 33, "unit": "%"},
      {"measurement": "Obs growth % of control", "setting": "giant foxtail (SETFA); 28 DAA, 24 g a.i./ha", "value": 9, "unit": "%"},
      {"measurement": "Obs growth % of control", "setting": "giant foxtail (SETFA); 28 DAA, 36 g a.i./ha", "value": 5, "unit": "%"},
      {"measurement": "Obs growth % of control", "setting": "giant foxtail (SETFA); 56 DAA, 12 g a.i./ha", "value": 70, "unit": "%"},
      {"measurement": "Obs growth % of control", "setting": "giant foxtail (SETFA); 56 DAA, 24 g a.i./ha", "value": 40, "unit": "%"},
      {"measurement": "Obs growth % of control", "setting": "giant foxtail (SETFA); 56 DAA, 36 g a.i./ha", "value": 28, "unit": "%"},
      {"measurement": "Obs growth % of control", "setting": "[1]; 19 DAA, 12 g a.i./ha", "value": 82, "unit": "%"},
      {"measurement": "Obs growth % of control", "setting": "[1]; 19 DAA, 24 g a.i./ha", "value": 58, "unit": "%"},
      {"measurement": "Obs growth % of control", "setting": "[1]; 19 DAA, 36 g a.i./ha", "value": 32, "unit": "%"},
      {"measurement": "Obs growth % of control", "setting": "[1]; 28 DAA, 12 g a.i./ha", "value": 100, "unit": "%"},
      {"measurement": "Obs growth % of control", "setting": "[1]; 28 DAA, 24 g a.i./ha", "value": 33, "unit": "%"},
      {"measurement": "Obs growth % of control", "setting": "[1]; 28 DAA, 36 g a.i./ha", "value": 35, "unit": "%"},
      {"measurement": "Obs growth % of control", "setting": "[1]; 56 DAA, 12 g a.i./ha", "value": 100, "unit": "%"},
      {"measurement": "Obs growth % of control", "setting": "velvetleaf (ABUTH); 19 DAA, 12 g a.i./ha", "value": 78, "unit": "%"},
      {"measurement": "Obs growth % of control", "setting": "velvetleaf (ABUTH); 19 DAA, 24 g a.i./ha", "value": 62, "unit": "%"},
      {"measurement": "Obs growth % of control", "setting": "velvetleaf (ABUTH); 19 DAA, 36 g a.i./ha", "value": 52, "unit": "%"},
      {"measurement": "Obs growth % of control", "setting": "velvetleaf (ABUTH); 28 DAA, 12 g a.i./ha", "value": 53, "unit": "%"},
      {"measurement": "Obs growth % of control", "setting": "velvetleaf (ABUTH); 28 DAA, 24 g a.i./ha", "value": 13, "unit": "%"},
      {"measurement": "Obs growth % of control", "setting": "velvetleaf (ABUTH); 28 DAA, 36 g a.i./ha", "value": 15, "unit": "%"},
      {"measurement": "Obs growth % of control", "setting": "velvetleaf (ABUTH); 56 DAA, 12 g a.i./ha", "value": 93, "unit": "%"},
      {"measurement": "Obs growth % of control", "setting": "velvetleaf (ABUTH); 56 DAA, 24 g a.i./ha", "value": 65, "unit": "%"},
      {"measurement": "Obs growth % of control", "setting": "velvetleaf (ABUTH); 56 DAA, 36 g a.i./ha", "value": 62, "unit": "%"},
      {"measurement": "Obs growth % of control", "setting": "giant ragweed (AMBTR); 19 DAA, 12 g a.i./ha", "value": 88, "unit": "%"},
      {"measurement": "Obs growth % of control", "setting": "giant ragweed (AMBTR); 19 DAA, 24 g a.i./ha", "value": 80, "unit": "%"},
      {"measurement": "Obs growth % of control", "setting": "giant ragweed (AMBTR); 19 DAA, 36 g a.i./ha", "value": 75, "unit": "%"},
      {"measurement": "Obs growth % of control", "setting": "giant ragweed (AMBTR); 28 DAA, 12 g a.i./ha", "value": 100, "unit": "%"},
      {"measurement": "Obs growth % of control", "setting": "giant ragweed (AMBTR); 28 DAA, 24 g a.i./ha", "value": 60, "unit": "%"},
      {"measurement": "Obs growth % of control", "setting": "giant ragweed (AMBTR); 28 DAA, 36 g a.i./ha", "value": 60, "unit": "%"},
      {"measurement": "Obs growth % of control", "setting": "giant ragweed (AMBTR); 56 DAA, 12 g a.i./ha", "value": 90, "unit": "%"},
      {"measurement": "Obs growth % of control", "setting": "giant ragweed (AMBTR); 56 DAA, 24 g a.i./ha", "value": 83, "unit": "%"},
      {"measurement": "Obs growth % of control", "setting": "giant ragweed (AMBTR); 56 DAA, 36 g a.i./ha", "value": 68, "unit": "%"},
      {"measurement": "Obs growth % of control", "setting": "common ragweed (AMBEL); 19 DAA, 12 g a.i./ha", "value": 88, "unit": "%"},
      {"measurement": "Obs growth % of control", "setting": "common ragweed (AMBEL); 19 DAA, 24 g a.i./ha", "value": 80, "unit": "%"},
      {"measurement": "Obs growth % of control", "setting": "common ragweed (AMBEL); 19 DAA, 36 g a.i./ha", "value": 68, "unit": "%"},
      {"measurement": "Obs growth % of control", "setting": "common ragweed (AMBEL); 28 DAA, 12 g a.i./ha", "value": 100, "unit": "%"},
      {"measurement": "Obs growth % of control", "setting": "common ragweed (AMBEL); 28 DAA, 24 g a.i./ha", "value": 45, "unit": "%"},
      {"measurement": "Obs growth % of control", "setting": "common ragweed (AMBEL); 28 DAA, 36 g a.i./ha", "value": 33, "unit": "%"},
      {"measurement": "Obs growth % of control", "setting": "common ragweed (AMBEL); 56 DAA, 12 g a.i./ha", "value": 85, "unit": "%"},
      {"measurement": "Obs growth % of control", "setting": "common ragweed (AMBEL); 56 DAA, 24 g a.i./ha", "value": 63, "unit": "%"},
      {"measurement": "Obs growth % of control", "setting": "common ragweed (AMBEL); 56 DAA, 36 g a.i./ha", "value": 53, "unit": "%"},
      {"measurement": "Obs growth % of control", "setting": "yellow nutsedge (CYPES); 19 DAA, 12 g a.i./ha", "value": 85, "unit": "%"},
      {"measurement": "Obs growth % of control", "setting": "yellow nutsedge (CYPES); 19 DAA, 24 g a.i./ha", "value": 85, "unit": "%"},
      {"measurement": "Obs growth % of control", "setting": "yellow nutsedge (CYPES); 19 DAA, 36 g a.i./ha", "value": 70, "unit": "%"},
      {"measurement": "Obs growth % of control", "setting": "yellow nutsedge (CYPES); 28 DAA, 12 g a.i./ha", "value": 83, "unit": "%"},
      {"measurement": "Obs growth % of control", "setting": "yellow nutsedge (CYPES); 28 DAA, 24 g a.i./ha", "value": 60, "unit": "%"},
      {"measurement": "Obs growth % of control", "setting": "yellow nutsedge (CYPES); 28 DAA, 36 g a.i./ha", "value": 50, "unit": "%"},
      {"measurement": "Obs growth % of control", "setting": "[2]; 12 g a.i./ha", "value": 100, "unit": "%"},
      {"measurement": "Obs growth % of control", "setting": "[2]; 24 g a.i./ha", "value": 3, "unit": "%"},
      {"measurement": "Obs growth % of control", "setting": "[2]; 36 g a.i./ha", "value": 43, "unit": "%"}
    ]}
  ]
}
